Test results: patent US8030336B2, “Nicotinamide-based kinase inhibitors” (YM Biosciences Australia Pty Ltd, priority 2002, dated 2011)

Key:
Assay type in all cases: biochemical
[1] = target: T1, Zap70 (Homo sapiens, UniProt P43403); test: Zap70 kinase assay (ELISA or Alphascreen); conditions: read-out: Zap70 inhibition of enzyme activity
T1 sequence (P43403 338-600 limits assumed): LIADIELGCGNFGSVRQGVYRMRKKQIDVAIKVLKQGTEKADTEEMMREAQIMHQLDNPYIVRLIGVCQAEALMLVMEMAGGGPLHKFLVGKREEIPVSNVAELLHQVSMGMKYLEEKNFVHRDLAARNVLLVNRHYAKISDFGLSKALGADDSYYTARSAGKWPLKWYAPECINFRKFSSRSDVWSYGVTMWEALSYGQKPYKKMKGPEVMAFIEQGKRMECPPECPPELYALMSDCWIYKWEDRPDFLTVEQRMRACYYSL
Procedure: (§1) Kinase assays were performed in a 96 well capture-based ELISA assay or in 384 well Optiplates (Packard) using an Alphascreen Protein Tyrosine Kinase kit. In either case using approximately 1.5 μg of affinity purified PTK domain in the presence of 50 mM HEPES, pH 7.5, 10 mM MgCl2, 150 mM NaCl and 10 μM-1 mM ATP. The biotinylated substrate biotin-EGPWLEEEEEAYGWMDF-NH2 (SEQ ID NO:9) (final concentration 5 μM) was used as substrate. In the ELISA assay tyrosine phosphorylation was quantitated following transfer to an avidin coated ELISA plate using peroxidase-linked anti-phosphotyrosine antibody PY20. In the Alphascreen assay, Alphascreen phosphotyrosine acceptor beads followed by streptavidin donor beads were added under subdued light. The ELISA plates were read on a BMG Fluorostar, the Alphascreen plates were read on a Packard Fusion Alpha. Inhibitors were added to the assays fifteen minutes prior to the addition of ATP. Inhibitors were added in aqueous […] concentrations never exceeding 1%.

[2] = target: hck (Homo sapiens, UniProt P08631); test: hck kinase assay (ELISA or Alphascreen); conditions: read-out: hck inhibition of enzyme activity
Procedure: as §1

[3] = target: fes (Homo sapiens, UniProt P07332); test: fes kinase assay (ELISA or Alphascreen); conditions: read-out: fes inhibition of enzyme activity
Procedure: as §1

[4] = target: T2, abl (Homo sapiens, UniProt P00519); test: abl kinase assay (ELISA or Alphascreen); conditions: read-out: abl inhibition of enzyme activity
T2 sequence (P00519 242-493 limits assumed): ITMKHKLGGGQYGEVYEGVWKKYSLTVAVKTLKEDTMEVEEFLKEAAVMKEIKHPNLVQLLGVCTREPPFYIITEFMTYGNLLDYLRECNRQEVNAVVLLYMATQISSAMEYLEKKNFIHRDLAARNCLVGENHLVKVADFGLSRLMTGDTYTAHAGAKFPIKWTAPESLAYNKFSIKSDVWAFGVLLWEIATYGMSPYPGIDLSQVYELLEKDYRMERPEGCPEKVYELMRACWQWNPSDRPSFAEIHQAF
Procedure: as §1

[5] = target: T3, human JAK2 (Homo sapiens, UniProt O60674); test: JAK2 kinase assay (ELISA or Alphascreen); conditions: read-out: Jak2 inhibition of enzyme activity
T3 construct: The kinase domain of human JAK2 was amplified from U937mRNA; His tag (from the pFastBac HTc vector) (N); made in house; host or cells: baculovirus; Sf9 for virus, High Five insect cells for production
Excerpt: The kinase domain of human JAK2 was amplified from U937mRNA using the polymerase chain reaction with the following primers: […]
JAK2 PCR products were doped into the pFastBac HTc expression vector (Gibco) via the Sal I and Not I sites. The JAK2 plasmid was than transformed into competent DH10Bac cells (Gibco), and the recombinant baculovirus produced prepared for transfection into Sf9 insect cells.
(§2) Baculovirus preparations from each of the JAK family members were infected into five liters of High Five cells (Invitrogen) grown in High Five serum free medium (Invitrogen) to a cell density of approximately 1-2×10^6 cells/ml. Cells are infected with virus at a MOI of 0.8-3.0. Cells were harvested and lysed. JAK kinase domains were purified by affinity chromatography on a Probond (Invitrogen) nickel chelate affinity column.
as §1

[6] = target: T4, human JAK3 (Homo sapiens, UniProt P52333); test: JAK3 kinase assay (ELISA or Alphascreen); conditions: read-out: Jak3 inhibition of enzyme activity
T4 construct: The kinase domain of human JAK3 was amplified from U937mRNA; His tag (from the pFastBac HTb vector) (N); made in house; host or cells: baculovirus; Sf9 for virus, High Five insect cells for production
Excerpt: The kinase domain of human JAK3 was amplified from U937mRNA using the polymerase chain reaction with the following primers: […]
JAK3 PCR products were cloned into the pFastBac HTb expression vector (Gibco) via the Xho I and Kpn I sites. The JAK3 plasmid was then transformed into competent DH10Bac cells (Gibco), and the recombinant baculovirus produced prepared for transfection into Sf9 insect cells.
as §2, §1

[7] = target: T5, fms (Homo sapiens, UniProt P07333); test: fms kinase assay (ELISA or Alphascreen); conditions: read-out: fms inhibition of enzyme activity
T5 sequence (P07333 582-910 limits assumed): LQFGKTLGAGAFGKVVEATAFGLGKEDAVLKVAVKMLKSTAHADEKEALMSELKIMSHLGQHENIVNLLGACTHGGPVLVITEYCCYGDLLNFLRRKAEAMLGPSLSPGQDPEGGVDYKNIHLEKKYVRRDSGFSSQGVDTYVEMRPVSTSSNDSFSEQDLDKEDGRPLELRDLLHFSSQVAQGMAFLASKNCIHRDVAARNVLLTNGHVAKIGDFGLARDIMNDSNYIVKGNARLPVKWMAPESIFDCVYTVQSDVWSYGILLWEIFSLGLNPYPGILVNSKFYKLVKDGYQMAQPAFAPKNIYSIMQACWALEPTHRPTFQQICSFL
Procedure: as §1

Sequence of hck (P08631 262-515 limits assumed, species assumed): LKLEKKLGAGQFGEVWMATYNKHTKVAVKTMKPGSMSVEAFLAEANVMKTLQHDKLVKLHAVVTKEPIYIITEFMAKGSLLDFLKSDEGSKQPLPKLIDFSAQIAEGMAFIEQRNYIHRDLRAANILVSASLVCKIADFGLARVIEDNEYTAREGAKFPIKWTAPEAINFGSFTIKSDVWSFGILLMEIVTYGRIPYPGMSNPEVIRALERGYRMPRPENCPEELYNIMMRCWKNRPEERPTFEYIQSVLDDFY
Sequence of fes (P07332 561-822 limits assumed, species assumed): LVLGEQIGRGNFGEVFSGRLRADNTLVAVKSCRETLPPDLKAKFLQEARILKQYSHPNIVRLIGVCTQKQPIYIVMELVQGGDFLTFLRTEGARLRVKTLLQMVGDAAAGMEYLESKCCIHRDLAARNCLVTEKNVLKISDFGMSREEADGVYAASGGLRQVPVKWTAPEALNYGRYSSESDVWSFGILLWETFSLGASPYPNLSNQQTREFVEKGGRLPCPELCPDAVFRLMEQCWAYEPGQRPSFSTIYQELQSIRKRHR
T4 sequence (P52333 822-1111 limits assumed): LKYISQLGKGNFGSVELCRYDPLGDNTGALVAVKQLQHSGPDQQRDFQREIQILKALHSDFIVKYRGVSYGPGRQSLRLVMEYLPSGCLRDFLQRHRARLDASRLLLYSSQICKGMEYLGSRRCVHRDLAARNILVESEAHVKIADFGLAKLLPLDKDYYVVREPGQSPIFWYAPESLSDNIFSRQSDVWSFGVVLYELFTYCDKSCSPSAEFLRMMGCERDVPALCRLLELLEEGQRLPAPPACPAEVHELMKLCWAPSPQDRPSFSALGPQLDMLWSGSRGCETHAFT
T3 sequence (O60674 849-1124 limits assumed): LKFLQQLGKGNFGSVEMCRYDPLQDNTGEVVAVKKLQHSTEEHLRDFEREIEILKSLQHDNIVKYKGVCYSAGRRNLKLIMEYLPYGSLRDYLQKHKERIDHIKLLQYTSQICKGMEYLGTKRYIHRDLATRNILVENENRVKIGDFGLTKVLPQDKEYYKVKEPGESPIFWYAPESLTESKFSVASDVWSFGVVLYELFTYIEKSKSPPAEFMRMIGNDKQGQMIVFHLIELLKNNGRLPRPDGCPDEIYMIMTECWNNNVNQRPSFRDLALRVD

Row | SMILES | inhibition at 10 µM [1] | inhibition at 10 µM [2] | inhibition at 10 µM [3] | inhibition at 10 µM [4] | inhibition at 10 µM [5] | inhibition at 10 µM [6] | inhibition at 10 µM [7]
1 | C[C@@H](NC(=O)c1cncc(-c2ccc(O)cc2)c1)c1ccccc1 | < 50% | < 50% | < 50% | < 50% | < 50% | – | –
2 | O=C(NCc1ccc(Cl)c(Cl)c1)c1cncc(-c2ccc(O)cc2)c1 | < 50% | < 50% | < 50% | < 50% | < 50% | < 50% | –
3 | O=C(NCc1cccc(F)c1)c1cncc(-c2ccc(O)cc2)c1 | < 50% | < 50% | < 50% | < 50% | – | < 50% | –
4 | Cc1ccc(CNC(=O)c2cncc(-c3ccc(O)cc3)c2)cc1 | < 50% | < 50% | < 50% | < 50% | < 50% | < 50% | –
5 | CN(Cc1ccccc1)C(=O)c1cncc(-c2ccc(O)cc2)c1 | < 50% | < 50% | < 50% | – | < 50% | < 50% | < 50%
6 | COc1ccc(NC(=O)c2cncc(-c3ccc(O)cc3)c2)c(OC)c1 | < 50% | < 50% | – | < 50% | < 50% | < 50% | –
7 | Cc1ccccc1NC(=O)c1cncc(-c2ccc(O)cc2)c1 | < 50% | ≥ 50% | < 50% | – | < 50% | < 50% | ≥ 50%
8 | CC(NC(=O)c1cncc(-c2ccc(O)cc2)c1)c1ccc(F)cc1 (centres unmarked) | < 50% | < 50% | < 50% | < 50% | < 50% | < 50% | –
9 | Cc1cc(-c2cncc(C(=O)N[C@H](C)c3ccccc3)c2)cc(C)c1O | < 50% | < 50% | < 50% | < 50% | < 50% | – | –
10 | COc1cc(CNC(=O)c2cncc(-c3cc(C)c(O)c(C)c3)c2)cc(OC)c1 | < 50% | < 50% | < 50% | – | < 50% | < 50% | ≥ 50%
11 | Cc1cc(-c2cncc(C(=O)NC(C)CCc3ccccc3)c2)cc(C)c1O (centres unmarked) | < 50% | < 50% | < 50% | – | < 50% | < 50% | < 50%
12 | COc1cc(-c2cncc(C(=O)NC(C)C)c2)c(Cl)c(OC)c1OC | < 50% | < 50% | < 50% | – | < 50% | < 50% | < 50%
13 | COc1cc(-c2cncc(C(=O)NCCc3ccccc3)c2)c(Cl)c(OC)c1OC | < 50% | < 50% | < 50% | – | < 50% | < 50% | < 50%
14 | COc1cc(-c2cncc(C(=O)Nc3ccc(F)cc3C)c2)c(Cl)c(OC)c1OC | < 50% | ≥ 50% | < 50% | – | < 50% | < 50% | ≥ 50%
15 | O=C(NCCO)c1cncc(-c2ccc3c(c2)OCO3)c1 | < 50% | < 50% | – | < 50% | < 50% | < 50% | –
16 | COc1cc(CNC(=O)c2cncc(-c3ccc4c(c3)OCO4)c2)cc(OC)c1 | < 50% | < 50% | < 50% | < 50% | < 50% | – | –
17 | O=C(NCc1cccc(F)c1)c1cncc(-c2ccc3c(c2)OCO3)c1 | < 50% | < 50% | < 50% | < 50% | < 50% | < 50% | –
18 | O=C(NCCc1ccccc1)c1cncc(-c2ccc3c(c2)OCO3)c1 | < 50% | < 50% | < 50% | < 50% | < 50% | < 50% | –
19 | Cc1ccccc1NC(=O)c1cncc(-c2ccc3c(c2)OCO3)c1 | < 50% | ≥ 50% | < 50% | < 50% | < 50% | < 50% | –
20 | O=C(NCc1ccc(N2CCOCC2)cc1)c1cncc(-c2cccs2)c1 | < 50% | < 50% | < 50% | < 50% | < 50% | – | –
21 | C[C@@H](NC(=O)c1cncc(-c2cccs2)c1)c1ccccc1 | < 50% | < 50% | < 50% | < 50% | < 50% | < 50% | –
22 | O=C(NCCc1ccccc1)c1cncc(-c2cccs2)c1 | < 50% | < 50% | < 50% | < 50% | < 50% | < 50% | –
23 | Cc1ccccc1NC(=O)c1cncc(-c2cccs2)c1 | < 50% | ≥ 50% | < 50% | < 50% | < 50% | < 50% | –
24 | COc1ccc(CNC(=O)c2cncc(-c3cccnc3)c2)cc1 | < 50% | < 50% | < 50% | < 50% | < 50% | < 50% | –
25 | Cc1cc(F)ccc1NC(=O)c1cncc(-c2ccc(F)cc2)c1 | < 50% | < 50% | < 50% | < 50% | < 50% | < 50% | –
26 | COc1cccc(-c2cncc(C(=O)N[C@H](C)c3ccccc3)c2)c1 | < 50% | < 50% | < 50% | < 50% | < 50% | < 50% | –
27 | COc1cccc(-c2cncc(C(=O)N[C@@H](C)c3ccccc3)c2)c1 | < 50% | < 50% | < 50% | < 50% | < 50% | < 50% | –
